In patent US11572532B2, “Antimicrobial composition” (The Procter & Gamble Company, priority 2019, dated 2023):
Where a name gives a salt, the structure may show the parent alone.

How the values were obtained:
[1] = pH measurement on the neat composition; type: physicochemical; settings: composition of 0.5% MEA + 1.5% TEA with 50 ppm of the active; 25° C.
Protocol: The pH is measured on the neat composition, at 25° C., using a pH meter with compatible gel-filled pH probe (such as Sartarius PT-10P meter with Toledo probe part number 52 000 100), calibrated according to the instruction manual.

Enterobacter aerogenes = assay: Minimum Biocidal Concentration (MBC) in suspension; type: cell-based; settings: active in 0.5% MEA + 1.5% TEA alkaline composition, no horse serum, contact time 6 minutes; for MBC: Klebsiella aerogenes, 0.1 h, read-out: MBC (ppm) E. aerogenes
Protocol: (§1) B) Antibacterial Efficacy (Minimum Biocidal Concentration in Suspension):
(§2) The antimicrobial efficacy of the antimicrobial agent in the composition is determined by measuring its Minimum Biocidal Concentration (MBC). The MBC is defined as the lowest absolute concentration of the particular antimicrobial active which provides complete kill (zero bacterial growth).
(§3) The antimicrobial agent was added to the composition at a level of 1000 ppm, or 500 ppm, or 200 ppm, or 100 ppm or 50 ppm, depending on what the Minimum Biocidal Concentration (MBC) is. 200 μL of the antimicrobial hard surface cleaning composition was dosed into one well of row A of a 96 well microtiter plate. Each subsequent well (rows B to G) were dosed with 100 μL of the same hard surface cleaning composition, without the addition of the antimicrobial agent. 100 μL of the antimicrobial hard surface cleaning composition was transferred from row A to row B and mixed. 100 μL of the composition was then transferred from row B to row C and mixed, and the process repeated to row G. As such, the concentration of the antimicrobial agent underwent two-fold dilution in adjacent wells, while the concentration of the other actives in the hard surface cleaning composition remained constant across all the wells in the same column.
(§4) 10 μL of the 10^8CFU/ml bacteria suspension in saline was added to wells A to F of the microtiter plate with row G kept as a nil bacteria control. The final volume in each well was 110 μL, except for row G which comprised 100 μL of the hard surface cleaning composition and no bacteria suspension. Bacterial inoculation to each column was staggered by 30 seconds to allow for equal incubation times in all wells so that the contact time between the bacteria and the antimicrobial active for all samples was 6 mins. After this contact time, 10 μL of each test solution was transferred to 90 μL of neutralizer solution (Modified Letheen Broth +1.5% Polysorbate 80, supplied by BioMérieux) to stop the antimicrobial action of the antimicrobial active matching the stagger of the inoculation. 2 μL of this solution was plated onto a TSA plate matching the stagger of the inoculation so that all samples are exposed to the neutralizer for the same period of time. The plate was incubated at 32.5° C. for 48 h. MBC concentration is taken as the lowest concentration of the antimicrobial active at which no visible colony growth is observed on the TSA plate.

[2] = system: Staphylococcus aureus (S.aureus—ATCC #6538); assay: Minimum Biocidal Concentration (MBC) in suspension; type: cell-based; settings: active in 0.5% MEA + 1.5% TEA alkaline composition, no horse serum, contact time 6 minutes; for MBC: Staphylococcus aureus, ATCC6538, 0.1 h, read-out: MBC (ppm) S. aureus
Protocol: as §1, §2, §3, §4

Compound | pH [1] | MBC (Enterobacter aerogenes) [µg/mL] | MBC [2] [µg/mL] | MBC (ppm) E. aerogenes (Enterobacter aerogenes) [ppm] | MBC (ppm) S. aureus [2] [ppm]
CCCCCCCCN=c1ccn(CCCCCCCCCCn2ccc(=NCCCCCCCC)cc2)cc1 [Bispyridinium alkane, octenidine dihydrochloride] | 11.4 | 12.5 | 3.13 |  | 
[H]/N=C(\N/C(=N/[H])NCCCCCCNC(=N)NC(=N)Nc1ccc(Cl)cc1)Nc1ccc(Cl)cc1 [Chlorhexidine] | 11.2 | 50 | 50 |  | 
CCCCCCCCCCCCN(CCCN)CCCN [N-(3-Aminopropyl)-N-dodecylpropane-1,3-diamine] | 11.5 | 50 | 12.5 |  | 
N-alkyl dimethyl benzyl ammonium chloride | 11.4 |  |  | 12.5 | 12.5
